From US20130072899A1, “Pharmaceutical Formulations for Iontophoretic Delivery of Gallium” (Nitric BloTherapeutics, Inc., priority 2008, published 2013)
Where “and” joins values, the source holds several entries; their conditions need not be identical. Equal entries are not always repeated. Where two headings read alike, the source gives them in different places.

Experiments:
[1] = Gallium permeated through human cadaver skin, receptor analysis; format: in vitro ADME; conditions: any of the conditions tested
Protocol: Anodal and cathodal iontophoresis (0.3 mA/cm^2 for 15 min) were carried out using full thickness human cadaver skin in Franz diffusion cells. Ga nitrate solutions (0.15% in 0.05M citrate buffer, or a saturated solution of 16.6% in 0.1M/1M citrate buffer) at different pH conditions (2 to 8) were evaluated.

[2] = tested on: collagen synthesis; conditions: cited from earlier work
[3] = Gallium permeation through full thickness human skin, Franz cells (effect of concentration and iontophoresis duration); format: in vitro ADME; conditions: for Amount of Ga detected in receiver after 70 h / Steady state Ga flux: nitrate hydrate; for increase in gallium permeation compared to passive cells: 16.7% w/v, 70 h
Protocol: Human full thickness skin was stored in the same fashion as the epidermal sheet (Example 3), and a similar Franz cell assembly technique was adopted. The effect of concentration was investigated by applying 16.7, 1.5 and 0.15 % w/v gallium solutions in pH 5.0 citric acid buffer to the donor compartment (0.8 mL). Ten minutes of 400 μA iontophoresis was applied to all of the cells and 0.5 mL samples were removed after 0, 24, 28, 42, 65 and 70 h and replaced with receiver fluid. The gallium in the samples was assayed using the LC ion-exchange method. […] Samples of 0.5 mL were removed for LC ion-exchange assay after 0, 24, 28, 42, 52 and 70 h and replaced with receiver fluid. […] Gallium solutions containing 2.4, 1.6, 0.79, 0.395 and 0.1975 mg of gallium in 20 μL of water were applied to the stratum corneum of the skin samples using a positive displacement pipette (Eppendorf, Cambridge, UK). The samples were then left for 24 h to allow the gallium to permeate the skin. The skin samples were then finely sliced using scissors, chilled and homogenised for five minutes using a T10 Ultra-Turax homogeniser (IKA works, Staufen, Germany) using 30 second pulses. The scalpel, scissors, forceps and homogeniser blades were washed through using 10 mL of PDCA mobile phase concentrate as the extractant. The PDCA concentrate (pH 4.2) was freshly made every week by weighing approximately 5.8 g PDCA, 18.5 g potassium hydroxide, 4.9 g potassium sulphate and 17.0 g of formic acid into a 1000 mL volumetric and making up to volume with DiH2O. The skin-PDCA concentrate homogenate was allowed to mix for a further 24 h before being filtered using 0.45 μm, 30 mm cellulose acetate syringe filters (Orange Scientific, Braine l'Alleud, Belgium). The gallium in the remaining solution was assayed using the LC ion-exchange method. The binding affinity was calculated by subtracting the amount of gallium recovered by the extraction from the amount applied to the skin, in order to gain the amount of gallium still bound to skin in the homogenate. This figure was then divided by the mass of the skin sample to calculate the amount of gallium bound per gram of skin.

[4] = Effect of speciation and ITP on gallium deposition within full thickness human skin; format: in vitro ADME
Protocol: An infinite dose skin deposition study was performed using full thickness human skin. Small Franz cells were constructed as previously described and the mass of skin section recorded. The Franz cells were set up with a receiver fluid of 0.05 M citric acid buffer (pH 5.0) and allowed to equilibrate for one hour. Donor solutions were prepared and 0.5 mL of each added to the appropriate Franz cell donor compartment. Each cell was subjected to either 60 min of ITP or an equivalent period of passive permeation. The cells were sacrificed after cither 60 min (directly after ITP, n=8) or after 25 h (24 h of permeation, n=8). […] The skin samples were removed and reweighed. […] The skin samples were then finely sliced using scissors, chilled and homogenised for five minutes using a T10 Ultra-Turax homogeniser (IKA werks, Staufen, Germany) using 30 second pulses. The scalpel blade, scissors, forceps and homogeniser blades were washed into the homogenate using PDCA mobile phase (five times concentrate) to minimise drug loss from the method. The skin-PDCA concentrate homogenate was allowed to mix for a further 24 h before being filtered using 0.45 μm, 30 mm cellulose acetate syringe filters (Orange Scientific, Braine l'Alleud, Belgium).

[5] = Chemical stability of Ga in different 50 mM buffers (HPLC gallium recovery); format: physicochemical
Protocol: The chemical stability of Ga in different 50 mM buffers was assessed including TRIS (pH 7.0), pyrrolidine (pH 11.3), citric acid (pH 5.0), borate (pH 8.0), formic acid (pH 2.5), phosphate (pH 7.3) and HEPES (pH 7.2). Three standard solutions of Ga in each buffer was assessed by HPLC analysis using the method described in Example 1 at four time points 0, 24, 48 and 100 h. Performance was measured by percentage gallium recovery according to the following formula: […]

[6] = 0.15% w/v, iontophoresis 10 min, 400 μA, listed as Ga
[7] = 1.5% w/v, iontophoresis 10 min, 400 μA, listed as Ga
[8] = 16.67% w/v, iontophoresis 0 min (passive), listed as Ga
[9] = 16.67% w/v, iontophoresis 0 min (passive)
[10] = 16.67% w/v, iontophoresis 10 min, 400 μA, listed as Ga
[11] = 16.67% w/v, iontophoresis 10 min, 400 μA, listed as gallium
[12] = 16.67% w/v, iontophoresis 60 min, 400 μA, listed as Ga
[13] = 16.67% w/v, iontophoresis 60 min, 400 μA

O=[N+]([O-])[O-].O=[N+]([O-])[O-].O=[N+]([O-])[O-].[Ga+3] [gallium nitrate, Gallium (III) nitrate hydrate]
Ga in the receptor [1]: not detected
maximum effective dose ([2]; nitrate hydrate): 100 uM and 0.0256 mg/ml
effective range per mg tissue ([2]; per mg dry weight tissue, Goncalves et al., 2002, Bockman patent): 1 to 1000 ng/mg
effective (desired) concentration range ([2]; published, Bockman et al. 1993, Goncalves et al. 2002): 0.25 to 100 µM
Amount of Ga detected in receiver after 70 h [3, 6]: 0.0028 ± 0.006 mg/cm^2
Steady state Ga flux [3, 6]: 0.008 μg/cm^2/h and 0.008 ± 0.005 μg/cm^2/h
Amount of Ga detected in receiver after 70 h ([3]; 0.15% w/v, iontophoresis 10 min, 400 μA): 0.0028±0.006 mg/cm^2
reduction of amount of drug permeating the skin ([3]; 1.5% w/v vs 16.67% w/v Ga, 10 min iontophoresis): 10.6%
Amount of Ga detected in receiver after 70 h [3, 7]: 0.044 ± 0.034 mg/cm^2
Steady state Ga flux [3, 7]: 0.9 μg/cm^2/h and 0.900 ± 0.695 μg/cm^2/h
Amount of Ga detected in receiver after 70 h ([3]; 1.5% w/v, iontophoresis 10 min, 400 μA): 0.0438±0.034 mg/cm^2
Amount of Ga detected in receiver after 70 h [3, 8]: 0.004 ± 0.011 mg/cm^2
Steady state Ga flux [3, 8]: 0.009 ± 0.003 μg/cm^2/h
Amount of Ga detected in receiver after 70 h [3, 9]: 0.004±0.011 mg/cm^2
Steady state Ga flux [3, 9]: 0.009±0.003 μg/cm^2/h
Amount of Ga detected in receiver after 70 h [3, 10]: 0.049 ± 0.013 mg/cm^2
Steady state Ga flux [3, 10]: 0.9 μg/cm^2/h and 0.900 ± 0.238 μg/cm^2/h
Amount of Ga detected in receiver after 70 h [3, 11]: 0.049±0.013 mg/cm^2
Steady state Ga flux [3, 11]: 0.9±0.238 μg/cm^2/h
Amount of Ga detected in receiver after 70 h ([3]; 16.67% w/v, iontophoresis 10 min, 400 μA): 0.049±0.013 mg/cm^2
Amount of Ga detected in receiver after 70 h [3, 12]: 0.063 ± 0.022 mg/cm^2
Steady state Ga flux [3, 12]: 1.300 ± 0.450 μg/cm^2/h
Amount of Ga detected in receiver after 70 h [3, 13]: 0.063±0.022 mg/cm^2
Steady state Ga flux [3, 13]: 1.3±0.450 μg/cm^2/h
increase in gallium permeation compared to passive cells ([3]; 10 min iontophoresis): 1125%
increase in gallium permeation compared to passive cells ([3]; 60 min iontophoresis): 1475%
gallium skin deposition (0.15% in 0.05M citrate buffer, pH 2, cathodal 0.3 mA/cm^2 15 min): 277.90 ± 51.24 ng/mg
gallium skin deposition (0.15% in 0.05M citrate buffer, pH 3, cathodal 0.3 mA/cm^2 15 min): 113.16 ± 17.65 ng/mg
gallium skin deposition (0.15% in 0.05M citrate buffer, pH 4, cathodal 0.3 mA/cm^2 15 min): 60.5 ± 21.11 ng/mg
gallium skin deposition (0.15% in 0.05M citrate buffer, pH 6, cathodal 0.3 mA/cm^2 15 min): 51.16 ± 6.65 ng/mg
maximum skin deposition expressed as concentration (16.6% gallium nitrate in 1M citrate at pH 8, 0.3 mA/cm^2 for 15 min): 0.78 mg/mL
gallium skin deposition (16.6% in 0.1 M citrate buffer, pH 2, anodal): 91.74 ± 13.09 ng/mg
gallium skin deposition (16.6% in 0.1 M citrate buffer, pH 4, anodal): 74.42 ± 22.31 ng/mg
gallium skin deposition (16.6% in 0.1 M citrate buffer, pH 6, anodal): 62.19 ± 23.76 ng/mg
gallium skin deposition (16.6% in 0.1 M citrate buffer, pH 6, cathodal): 99.62 ± 36.44 ng/mg
gallium skin deposition (16.6% in 1M citrate buffer, pH 6, cathodal): 163.72 ± 36.72 ng/mg
gallium skin deposition (16.6% in 1M citrate buffer, pH 7, cathodal): 250.49 ± 39.76 ng/mg
gallium skin deposition (16.6% in 1M citrate buffer, pH 8, cathodal, nitrate hydrate): 329.52 ± 36.10 ng/mg and 330 ng/mg
ITP Ga skin deposition 24 h ([4]; Anodal, 60 min ITP then 24 h): 1.888±1.159 mg/cm^2
ITP Ga skin deposition 60 min ([4]; Anodal, 60 min of 615 μA/cm^2 ITP): 1.203±0.248 mg/cm^2
60 min passive skin deposition ([4]; passive, 60 min): 0.288±0.258 mg/cm^2
Ga loss after 100 h ([5]; 0.25 mg/ml Ga in pyrrolidine buffer, P<0.05, ANOVA): significant Ga loss
[Ga] mg/ml recovered ([5]; Borate (pH 8.0) 50 mM, listed as Ga, nitrate hydrate): no peaks observed
[Ga] mg/ml recovered ([5]; Citric acid (pH 5.0) 50 mM, target conc. 0.13 mg/ml): 0.15 mg/mL
[Ga] mg/ml recovered ([5]; Citric acid (pH 5.0) 50 mM, target conc. 0.25 mg/ml): 0.28 mg/mL
[Ga] mg/ml recovered ([5]; Citric acid (pH 5.0) 50 mM, target conc. 0.5 mg/ml): 0.54 mg/mL
[Ga] mg/ml recovered ([5]; Formic acid (pH 2.5) 50 mM, target conc. 0.13 mg/ml): 0.16 mg/mL
[Ga] mg/ml recovered ([5]; Formic acid (pH 2.5) 50 mM, target conc. 0.25 mg/ml): 0.29 mg/mL
[Ga] mg/ml recovered ([5]; Formic acid (pH 2.5) 50 mM, target conc. 0.5 mg/ml): 0.55 mg/mL
[Ga] mg/ml recovered ([5]; HEPES (pH 7.2) 50 mM, target conc. 0.13 mg/ml): 0.10 mg/mL
[Ga] mg/ml recovered ([5]; HEPES (pH 7.2) 50 mM, target conc. 0.25 mg/ml): 0.06 mg/mL
[Ga] mg/ml recovered ([5]; HEPES (pH 7.2) 50 mM, target conc. 0.5 mg/ml): 0.13 mg/mL
[Ga] mg/ml recovered ([5]; Phosphate (pH 7.3) 50 mM, target conc. 0.13 mg/ml): 0.04 mg/mL
[Ga] mg/ml recovered ([5]; Phosphate (pH 7.3) 50 mM, target conc. 0.25 mg/ml): 0.11 mg/mL
[Ga] mg/ml recovered ([5]; Phosphate (pH 7.3) 50 mM, target conc. 0.5 mg/ml): 0.30 mg/mL
[Ga] mg/ml recovered ([5]; Pyrrolidine (pH 11.3) 50 mM, target conc. 0.13 mg/ml): 0.13 mg/mL
[Ga] mg/ml recovered ([5]; Pyrrolidine (pH 11.3) 50 mM, target conc. 0.25 mg/ml): 0.25 mg/mL
[Ga] mg/ml recovered ([5]; Pyrrolidine (pH 11.3) 50 mM, target conc. 0.5 mg/ml): 0.49 mg/mL
[Ga] mg/ml recovered ([5]; TRIS (pH 7.0) 50 mM, target conc. 0.13 mg/ml): 0.01 mg/mL
[Ga] mg/ml recovered ([5]; TRIS (pH 7.0) 50 mM, target conc. 0.25 mg/ml): 0.13 mg/mL
[Ga] mg/ml recovered ([5]; TRIS (pH 7.0) 50 mM, target conc. 0.5 mg/ml): 0.49 mg/mL
Ga loss between 0 and 100 h ([5]; citric or formic acid buffer, P>0.05, ANOVA): No significant Ga loss
